Assay results reported in patent US11839210B1, “Plant growth promoter with strigolactones regulation activities” (King Abdullah University of Science and Technology, priority 2017, dated 2023).

Tests used:
[1] = test system: SL biosynthesis genes (D27, CCD7, CCD8 and CO); test: qRT-PCR of transcript levels of SL biosynthesis genes (all four together) in rice roots; assay type: in vivo; details: for expression levels of D27, CCD7, CCD8 and CO: −Pi
Method: For the analysis of SL transcript levels in the zas mutant, one week-old seedlings were grown hydroponically in half-strength modified Hoagland nutrient solution with K2HPO4·2H2O (+Pi) and without K2HPO4·2H2O (−Pi) for 7 days. Seedlings were further treated with zaxinone for 6 h and tissues were collected.
Total RNA was extracted from the roots and shoots using a Qiagen Plant RNeasy Kit according to the manufacturer's instruction. cDNA was synthesized from 1 μg of total RNA using iScript cDNA Synthesis Kit (BIO-RAD Laboratories, Inc, 2000 Alfred Nobel Drive, Hercules, CA, Cat. No #170-8890) according to instructions in the user manual. For mycorrhizal samples, single-strand cDNA was synthesized from 1 μg of total RNA using Super-Script II (Invitrogen) according to instructions in the user manual. Primers used for real-time quantitative RT-PCR (qRT-PCR) analysis are listed below in Table 3. qRT-PCR was performed using SYBR Green Master Mix (Applied Biosystems; www.lifetechnologies.com) in a StepOnePlus (Life Technologies, Carlsbad, CA, USA). For mycorrhizal samples, qRT-PCR was performed using a Rotor-Gene Q 5plex HRM Platform (Qiagen). The 2-ΔCt method was used to calculate the relative gene expression levels and rice Ubiquitin (OsUBQ or OsRubQ1) gene was used as the internal control to normalize target gene expression.
Two week-old seedlings were grown for another one week in −Pi solution and then transferred to new vials containing fresh −Pi solution with and without the indicated concentrations (2.5 μM, 5 μM, 10 μM and 20 μM) of zaxinone for 6 h and samples were collected. SL biosynthetic genes expression for D27 (FIG. 19A), CCD7 […], CCD8 (FIG. 19C), and CO (Carlactone oxidase-FIG. 19D) in WT and zas mutants. […] The expression levels were detected by quantitative RT-PCR. Ubiquitin was used as a reference gene and the expression levels in the WT-mock were normalized to 1. Bars represent mean±SD (n=3). Different letters above each bar denote significant difference following a One-way ANOVA test (P<0.05).
Transcript levels of SL biosynthesis genes, D27 (FIG. 24C), CCD7/D17 (FIG. 24D), CCD8/D10 (FIG. 24E) and OsCO (Carlactone oxidase—FIG. 24F) in root tissues were collected for SL quantification. The expression levels were detected by qRT-PCR. Ubiquitin was used as a reference gene and the expression levels in the WT-mock were normalized to 1. Two week-old seedlings were grown for another one week in −Pi solution and then transferred to new vials containing fresh −Pi solution with and without 5 μM of zaxinone and GR24 for 6 h and samples were collected. Bars represent mean±SD (n=3). Different letters above each bar denote significant difference following a One-way ANOVA test (P<0.05).

epi-5DS (5-deoxystrigol) = test: LC-MS/MS levels of epi-5DS in rice root exudates and roots; assay type: in vivo; details: −Pi, 5 μM zaxinone
Method: For the analysis of SLs, one week-old seedlings were further transferred into 50 ml falcon tube (three seedlings per tube) containing Hoagland nutrient solution with K2HPO4·2H2O (+Pi) and grown in the growth cabinet for one week. The rice seedlings were then subjected to phosphate deficiency for another one week period. On the day of root exudates collection, rice seedlings were first treated with 5 μM zaxinone for 6 h and then root exudates and root tissues were collected from each tube for LC-MS/MS analysis and Striga bioassays.
For the quantification of 4-deoxyorobanchol in rice root exudates, 50 ml of root exudate spiked with 0.672 ng of D6-5-deoxystrigol, was brought on a 500 mg/3 ml fast SPE C18 column preconditioned with 6 ml of methanol and 6 ml of water. After washing with 6 ml of water, strigolactones were eluted in 5 ml of acetone. The 4-deoxyorobanchol fraction (acetone-water solution) was concentrated to SLs aqueous solution (˜1 ml), followed by extraction with 1 ml of ethyl acetate. Then 750 μl of 4-deoxyorobanchol enriched organic phase was transferred to a 1.5 ml tube and evaporated to dryness under vacuum. The residue was dissolved in 100 μl of acetonitrile:water (25:75, v:v) and filtered through a 0.22 μm filter for LC-MS/MS analysis.
For the quantification of 4-deoxyorobanchol in rice root, plant tissue material was lyophilized and ground. 30 mg root tissue spiked with 0.672 ng of D6-5-deoxystrigol was extracted with 2 ml of ethyl acetate in an ultrasound bath (Branson 3510 ultrasonic bath) for 15 minutes, followed by centrifugation for 8 minutes at 3800 rpm at 4° C. The supernatant was collected and the pellet was re-extracted with 2 ml of ethyl acetate. The two supernatants were then combined and dried under vacuum. The residue was dissolved in 100 μl of ethyl acetate and 2 ml of hexane. The resulting extract solution was loaded on a Silica gel SPE column (500 mg/3 ml) preconditioned with 3 ml of ethyl acetate and 3 ml of Hexane. After washing with 3 ml of Hexane, 4-deoxyorobanchol was eluted in 3 ml of ethyl acetate and evaporated to dryness under vacuum. The residue was re-dissolved in 200 μl of acetonitrile:water (25:75, v:v) and filtered through a 0.22 μm filter for LC-MS/MS analysis.
4-Deoxyorobanchol was analyzed by using HPLC-Q-Trap-MS/MS with MRM mode. Chromatographic separation was achieved on an Agilent 1200 HPLC system with an Acquity UPLC BEH C18 column (50×2.1 mm; 1.7 μm; Waters Corp.). Mobile phases consisted of water:acetonitrile (95:5, v:v, A) and acetonitrile (B), both containing 0.1% formic acid. […]
The levels of epi-5DS (5-deoxystrigol) in root exudates (FIG. 15A) and roots (FIG. 15B) for WT and zas mutant rice under −Pi conditions (phosphate deficient) with zaxinone (5 μM) treatment were determined by LC-MS/MS. […]

For `CC(=O)/C=C/C=C(C)/C=C/C1=C(C)C[C@@H](O)CC1(C)C` [zaxinone, 3-OH-β-apo-13-carotenone], the “SL transcript levels in roots” value ([1]; Shiokari wild-type and d3 seedlings, phosphate-starved, 5 μM, 6 h) was “decreased”, the “transcript levels of D27, CCD7, CCD8 and CO” value ([1]; WT and zas root tissues, normal phosphorus (+Pi), zaxinone 6 h) was “nor was there a pronounced effect” and the “expression levels of D27, CCD7, CCD8 and CO” value (from here on “expression levels of D27, CCD7”) ([1]; wild-type roots, 2.5-20 μM zaxinone, 6 h) was “decreased the expression levels of the wild-type to levels below the WT/Mock control level”. For the same compound, the “transcript levels of D27, CCD7, CCD8 and CO” value ([1]; zas mutant and wild-type seedlings, phosphate starvation, 5 μM zaxinone) was “decreased the transcript levels”, the “expression levels of D27, CCD7” value ([1]; zas mutant roots, increased concentrations (5, 10, 20 μM) vs 2.5 μM, 6 h) was “Only slight decreases” and the “expression levels of D27, CCD7” value ([1]; zas mutant roots, lowest level of zaxinone (2.5 μM), 6 h) was “reduced the expression levels to near the WT/Mock level”. The “relative expression of transcript levels of D27, CCD7, CCD8 and CO” value ([1]; zaxinone treated zas mutants (zas/Zax), phosphate starvation, 5 μM) was “at or near levels for the wild-type controls”, the “decrease of epi-5DS level in root exudates, mock to zaxinone” value (epi-5DS (5-deoxystrigol); WT rice) was “around 75%” and the “decrease of epi-5DS level in roots, mock to zaxinone” value (epi-5DS (5-deoxystrigol); WT rice) was “around 50%”. For the same compound, the “decrease of epi-5DS level in root exudates, mock to zaxinone” value (epi-5DS (5-deoxystrigol); zas mutant rice) was “approximately 64%” and the “decrease of epi-5DS level in roots, mock to zaxinone” value (epi-5DS (5-deoxystrigol); zas mutant rice) was “around 75%”.
